Results published in US11564911B2, “Small molecule dual-inhibitors of TRPV4 and TRPA1 for sanitizing and anesthetizing” (Duke University, priority 2016, dated 2023).
Values joined by “and” are separate entries in the source; they are usually repeats but may differ in a detail not shown here. Identical values can stand only once. “Also recorded” adds a separate entry of the source. Square brackets hold non-standard residues; d marks the D form. Peptide text beside a SMILES is read from it.

Assays:
[1] = system: primary mouse keratinocytes (1° MK); test: UVB-evoked Ca++ signaling in primary mouse keratinocytes (fluo-4); type: cell-based; conditions: for ET1-augmented UVB-induced Ca++ transients: co-exposure to ET1; for UVB-evoked Ca++ signal: GSK205 20 μM
Procedure: Ca++ imaging of 1° MK was conducted following routine procedures. For UVB stimulation, a customized device was built. The system comprised a printed circuit board for electrical interconnects and mechanical support and an ultraviolet light-emitting diode (UV LED).
The operating wavelength was 295 nm (FIG. 2A), with a full-width half-max of 12 nm. The optical power was 500 mW. The focal point was aimed at the plane of the upper surface of the quartz coverslip, which was used to minimize UV absorption along the optical path towards the cells (FIG. 2A-C). The optical intensity at the focal point was estimated to be 150 mW/mm^2.
(§1) Ca++ imaging of mouse 1° MK in response to chemical activation of TRPV4 was conducted after loading with 2 μM fura2-AM, following a ratiometric Ca2+ imaging protocol with 340/380 nm […] for dual excitation. Ratios of emissions were acquired at 0.5 Hz. ΔR/R0 was determined as the fraction of the increase of a given ratio over baseline ratio, divided by baseline ratio. For stimulation of cells with UVB, where fura-2 was not suitable because of the proximity of stimulation with 340/380 nm and 295 nm, 2 μM fluo4-AM was used instead. Ca++ imaging was carried out at 488 nm excitation, acquisition of emissions at 0.5 Hz, expressed as ΔF/F0. In the custom-built UV optical system, UV LEDs were capped with a ball lens, a transparent optical window in the shape of a hemispherical lens (FIG. 2B). The LED output optical beam focused at 15-20 mm from the lens, with a spot diameter of approximately 1.5-2.0 mm (FIG. 2C). […] The thermal equilibration stage was set for physiological temperature.

[2] = system: primary mouse keratinocytes (1° MK); test: ET1 secretion by non-stimulated primary mouse keratinocytes (ELISA); type: cell-based
Procedure: FIGS. 8A-8D: Central role for KC TRPV4 in UVB-evoked Ca^++ signaling and nocifensive behavior—ET1-related supplementary findings. (FIG. 8A) Augmentation of GSK101-evoked Ca^++ signaling by ET1. Shown are averaged Ca^++ measurements (fura-2) in response to 5 nM GSK101. Note the increase in signal in response to co-exposure to ET1. (FIG. 8B) ET1 secretion by non-stimulated 1° MK depends on TRPV4 and PLC. Shown are relative ET1 concentrations (determined by ELISA, pg/mL; vehicle-treated and WT control normalized to 100) in supernatant of non-stimulated 1° MK. Note the clear dependence on TRPV4, as indicated by a 50% reduction in Trpv4^−/− 1° MK. […] There is also down-regulation of ET1 secretion by a specific inhibitor of PLC (U73122), and by an ET-convertase inhibitor, CGS35066, which served as a control compound. In addition, PLC-inhibitor robustly affects ET1 secretion in WT and Trpv4^−/− 1° MK. (FIG. 8C) ET1 expression by UVB-exposed 1° MK depends on TRPV4 and PLC—immunocytochemistry. Shown is specific ET1 immunolabeling in 1° MK, exposed to UVB using the UVB-LEDs, as for Ca^++ imaging. Use of the UVB-LED device precluded application of a ET1 ELISA, only irradiated cells could be examined. […] (FIG. 8D) ET1 expression by UVB-exposed 1° MK depends on TRPV4 and PLC—quantification of immunocytochemistry.

[3] = system: primary mouse keratinocytes (1° MK); test: ET1 immunocytochemistry in UVB-exposed primary mouse keratinocytes; type: cell-based; conditions: 295 nm UVB-LED
Procedure: 1° MK were exposed to UVB using the UV optical system (295 nm LED). 24 hours later the cells were fixed and fluorescently immunolabeled for ET1. Digital images were captured and subjected to morphometry.
Mouse keratinocytes were cultured on collagen coated quartz coverslips and then stimulated from the bottom using the previously mentioned UV optical system using the 295 nm LED. 24 hours later the cells were fixed in 4% formaldehyde in PBS for 20 minutes, permeabilized with 0.1% Triton X-100 in PBS for 10 minutes, washed, then blocked in 10% normal goat serum in PBS for 45 minutes. Coverslips were incubated overnight with primary antibody mouse anti-ET1 (1:200; Abcam), washed three times in PBS and incubated with secondary antibody for 2 hours at 25° C. Coverslips were washed three times in PBS, once with double-distilled H2O. Digital images were captured using a 40× immersion lens on the BX61 Olympus upright microscope. Morphometric analysis was conducted using ImageJ freeware with tailored regions-of-interest.

[4] = target: T1, TRPV4 (rat) (Rattus norvegicus, UniProt Q9ERZ8); test: Ca++ imaging in N2a cells with directed expression of TRPV4, activation with GSK101; type: cell-based
T1 construct: expressed in transfected cells; host or cells: N2a (mouse neuroblastoma) cells
Excerpt: FIGS. 26A-26B: Assessment of compounds in N2a cells with directed expression of TRPV4. […] The number on each bar corresponds to average peak ΔCa++ concentrations in ≈100 cells. […] Plot generated from averaged peak ΔCa++ concentration of 75 cells per data-point.

[5] = target: TRPV4 (Homo sapiens, UniProt Q9HBA0); test: TRPV4-mediated calcium influx in N2a cells with targeted expression of human TRPV4; type: cell-based; design: expressed in transfected cells; host or cells: N2a cells; conditions: 2.5 μM inhibitor, pre-incubation 10 min, 10 nM GSK101
[6] = system: Trpv4−/− mice, whisker-pad injection of formalin; test: Formalin-evoked trigeminal irritant pain, systemic (i.p.) compound, Trpv4−/− mice; type: in vivo, mouse; conditions: 25 mg/kg i.p.
Procedure: FIGS. 31A-31D: 16-8 and 16-19 effectively attenuate formalin-evoked trigeminal irritant pain. (FIG. 31A) Time-course of nocifensive behavior in WT mice following whisker-pad injection of 4% formalin. The mice were pre-injected (i.p., 10 mg/kg; 15 min before formalin) with GSK205, 16-8 or 16-19. Note effective reduction of nocifensive behavior in the late “neural” phase by compounds 16-8, 16-19, not by GSK205. (FIG. 31B) Cumulative response binned into 3 phases: acute phase (0-5 min), interphase (5-15 min), and late “neural” phase (15-45 min). […] (FIG. 31C) As in (FIG. 31A), but also including Trpv4^−/− mice. Compounds were applied i.p. 15 min before formalin challenge, at 10 mg/kg except established TRPA1 blocker, A967079 (25 mg/kg). Previously-established attenuated nocifensive behavior in early and late phase in Trpv4^−/− mice was recapped, which was reduced further by TRPA1 blocker, A967079. (FIG. 31D) As in (FIG. 31B), plus inclusion of Trpv4^−/− mice. Robust effects of TRPA1-blocker, A967079, were mimicked equi-potently by 16-8 and 16-19 for early phase, and by 16-8 for late phase, partially by 16-19 for late phase. (FIG. 31A, FIG. 31C) show averaged behavioral metrics per time-point, bars in (FIG. 31B, FIG. 31D) represent mean±SEM; for (D) *p<0.05; #P<0.005, one-way ANOVA; for all panels n=5-8 mice/group.
Compounds were tested for their effect in reducing pain using an in vivo pain model in mice. For mouse formalin-evoked irritant behavior measurements, mice were well-fed, well-rested, and tested at the same time of day, at the same time-point of their circadian rhythm. They were allowed to acclimate to a plexiglas chamber for at least 30 min before testing, and received 10 μL subcutaneous injection of 4% of formalin (diluted from an aqueous solution of commercial 37% formaldehyde with normal saline (NS)) through a 30-gauge needle into the right whiskerpad, as further detailed in Luccarini et al. (J. Pain, 2006, 7, 908-914). Normal saline was used as control injection. After injection, mice were immediately placed back into the chamber and the rubbing behavior was recorded by a private consumer-type video-camera for a 45 min observation period. The recording time was divided into 9 blocks of 5 min, and a nociceptive score was determined per block by measuring the time that the animals spent rubbing the injected area predominantly with the ipsilateral fore-paw and rarely with hind-paw. This rubbing behavior with fore-paw is evoked by pain, which is distinct from itch behavior. Behavioral analysis was conducted by observers blinded to treatment.
We observed significant residual irritant-pain behavior in all phases of the formalin model in Trpv4^−/− mice, consistent with our previous report^13 (FIG. 31C,D). […] A reference TRPA1-inhibitory compound, A967079, was used at 25 mg/kg body weight as a positive control to inhibit TRPA1, based on a previous report^38. Reduction of pain behavior in Trpv4^−/− mice was striking, more than 50% in the late neural phase. […] We conclude that compound 16-8 also functions as a potent TRPA1-inhibitor in an in-vivo irritant pain model specifically designed to assess the contribution of TRPA1 to trigeminal irritant pain, and at least as potent as an established reference TRPA1-antagonistic compound.

[7] = target: T2, TRPV4 (Mus musculus, UniProt Q9EPK8); test: Ca++ transients in primary mouse keratinocytes on chemical activation of TRPV4 (GSK101, 4α-PDD); type: cell-based; conditions: 1° MK
T2 construct: endogenous in cells; host or cells: primary mouse epidermal keratinocytes (1° MK)
Procedure: as §1, with “temperature. We confirmed the non-thermal nature of UVB stimulation using the customized 295 nm LED device in a dedicated experiment (FIG. 2D), thus confirming the specific modality of stimulation as UVB.” for “temperature.”

[8] = system: WT and oil-treated iKO mice; test: Nocifensive behavior after ET1 footpad injection (von Frey); type: in vivo, mouse; conditions: 10 μL 100 nM ET-1 intraplantar
Procedure: ET1 injections: After determining base-line withdrawal thresholds, each animal received an intraplantar injection of 10 μL 100 nM ET-1 plus contralateral vehicle. Thresholds were again evaluated 1 hour after injection.
Hindpaw mechanical withdrawal thresholds were determined by the automated von Frey hair method, using a 0.5 mm diameter stainless steel filament, part of an automated plantar touch stimulator (Ugo Basile, Modena, Italy). Relevant detail included pre-test acclimatization in a quiet room for 30 min, conducting the test at the same time of day and blinded observers. The stimulus was delivered to the hindpaw, automatically discontinued upon withdrawal, and its intensity recorded automatically. 6-8 trials per animal were conducted, with equal exposure of both hindpaws, leading to an average withdrawal threshold. Results are reported as […], which was calculated by subtracting post-treatment from pre-treatment measurements, expressed as % or relative to 1.0.

T1 sequence (Q9ERZ8 whole entry): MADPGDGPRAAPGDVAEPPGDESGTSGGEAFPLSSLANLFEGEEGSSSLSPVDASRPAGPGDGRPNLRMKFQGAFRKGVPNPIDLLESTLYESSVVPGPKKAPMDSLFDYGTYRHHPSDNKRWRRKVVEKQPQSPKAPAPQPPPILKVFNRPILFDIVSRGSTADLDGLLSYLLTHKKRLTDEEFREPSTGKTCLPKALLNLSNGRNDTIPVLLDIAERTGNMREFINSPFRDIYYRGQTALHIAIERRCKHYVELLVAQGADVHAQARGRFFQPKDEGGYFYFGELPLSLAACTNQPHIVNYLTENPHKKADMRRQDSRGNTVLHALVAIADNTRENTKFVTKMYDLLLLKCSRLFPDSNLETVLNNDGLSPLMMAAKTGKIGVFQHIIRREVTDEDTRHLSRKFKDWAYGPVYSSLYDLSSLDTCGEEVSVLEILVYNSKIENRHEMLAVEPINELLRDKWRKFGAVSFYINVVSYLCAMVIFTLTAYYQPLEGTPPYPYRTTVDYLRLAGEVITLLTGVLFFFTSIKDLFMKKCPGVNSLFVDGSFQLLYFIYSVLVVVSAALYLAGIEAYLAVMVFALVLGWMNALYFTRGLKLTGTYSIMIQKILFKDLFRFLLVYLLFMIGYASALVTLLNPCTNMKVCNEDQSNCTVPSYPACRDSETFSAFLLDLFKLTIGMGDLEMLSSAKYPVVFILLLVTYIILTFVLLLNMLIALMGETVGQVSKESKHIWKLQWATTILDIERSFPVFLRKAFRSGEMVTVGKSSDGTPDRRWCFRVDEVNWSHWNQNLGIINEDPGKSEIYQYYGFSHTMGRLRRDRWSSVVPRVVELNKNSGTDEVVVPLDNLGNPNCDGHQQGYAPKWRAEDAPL
T2 sequence (Q9EPK8 whole entry): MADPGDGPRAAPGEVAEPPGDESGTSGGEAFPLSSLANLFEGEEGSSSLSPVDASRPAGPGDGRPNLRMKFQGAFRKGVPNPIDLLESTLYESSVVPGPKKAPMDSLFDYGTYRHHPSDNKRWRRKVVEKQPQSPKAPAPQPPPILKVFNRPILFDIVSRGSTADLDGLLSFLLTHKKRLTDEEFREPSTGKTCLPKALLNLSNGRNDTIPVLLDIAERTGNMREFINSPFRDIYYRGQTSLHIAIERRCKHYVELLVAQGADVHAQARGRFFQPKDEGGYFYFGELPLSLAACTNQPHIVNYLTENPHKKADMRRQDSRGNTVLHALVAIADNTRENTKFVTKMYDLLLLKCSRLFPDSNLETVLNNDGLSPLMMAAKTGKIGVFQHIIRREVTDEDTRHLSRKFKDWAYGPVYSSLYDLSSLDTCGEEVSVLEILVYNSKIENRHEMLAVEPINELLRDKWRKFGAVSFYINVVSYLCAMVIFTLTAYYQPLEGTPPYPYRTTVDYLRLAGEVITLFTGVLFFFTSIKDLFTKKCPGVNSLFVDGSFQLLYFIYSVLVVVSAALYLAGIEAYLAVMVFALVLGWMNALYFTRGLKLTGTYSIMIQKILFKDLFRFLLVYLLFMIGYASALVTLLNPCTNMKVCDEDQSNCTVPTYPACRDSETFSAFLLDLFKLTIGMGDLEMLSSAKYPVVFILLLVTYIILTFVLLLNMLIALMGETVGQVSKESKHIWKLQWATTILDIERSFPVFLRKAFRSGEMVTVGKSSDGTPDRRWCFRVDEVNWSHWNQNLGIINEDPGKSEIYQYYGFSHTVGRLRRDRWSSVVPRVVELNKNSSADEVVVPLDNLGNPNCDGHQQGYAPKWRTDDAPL
Sequence of TRPV4 (Homo sapiens, UniProt Q9HBA0) (Q9HBA0 whole entry): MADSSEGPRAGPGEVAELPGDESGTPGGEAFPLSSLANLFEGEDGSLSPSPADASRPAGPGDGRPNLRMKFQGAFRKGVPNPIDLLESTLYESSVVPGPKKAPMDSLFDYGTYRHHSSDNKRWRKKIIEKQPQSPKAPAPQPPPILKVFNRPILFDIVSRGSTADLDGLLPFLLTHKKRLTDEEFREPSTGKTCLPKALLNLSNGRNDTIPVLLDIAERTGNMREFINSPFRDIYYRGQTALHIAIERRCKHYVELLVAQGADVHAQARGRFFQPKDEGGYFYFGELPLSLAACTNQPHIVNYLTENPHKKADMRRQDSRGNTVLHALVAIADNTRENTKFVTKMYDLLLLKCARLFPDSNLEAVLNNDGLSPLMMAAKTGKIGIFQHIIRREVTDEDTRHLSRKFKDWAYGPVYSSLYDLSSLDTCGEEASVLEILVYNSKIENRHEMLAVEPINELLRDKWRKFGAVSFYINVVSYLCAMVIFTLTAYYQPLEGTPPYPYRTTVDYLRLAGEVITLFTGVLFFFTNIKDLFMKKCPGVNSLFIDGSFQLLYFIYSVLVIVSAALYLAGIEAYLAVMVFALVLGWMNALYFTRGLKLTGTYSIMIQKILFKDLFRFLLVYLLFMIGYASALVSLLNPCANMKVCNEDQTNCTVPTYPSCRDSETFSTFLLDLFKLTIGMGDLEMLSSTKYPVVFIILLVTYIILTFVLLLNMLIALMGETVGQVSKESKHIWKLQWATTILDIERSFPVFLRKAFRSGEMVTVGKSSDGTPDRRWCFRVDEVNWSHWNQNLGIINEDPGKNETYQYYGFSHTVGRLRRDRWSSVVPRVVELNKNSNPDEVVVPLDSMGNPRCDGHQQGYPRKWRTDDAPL

Row | Molecule | UVB-evoked Ca++ signal [1] | ET1 secretion, supernatant of non-stimulated 1° MK [2] | ET1 immunoreactivity in UVB-exposed 1° MK [3] | also measured
1 | CC(C)C[C@@H]1NC(=O)[C@@H](C(C)C)NC(=O)[C@@H]2CCCN2C(=O)[C@@H](CC(=O)O)NC(=O)[C@@H](Cc2c[nH]c3ccccc23)NC1=O [BQ123] (cyclo(L[dW][dD]P[dV])) | – | – | – | ET1-augmented UVB-induced Ca++ transients [1]: attenuated
2 | CCCC[C@@H](NC(=O)[C@@H](Cc1cn(C(=O)OC)c2ccccc12)NC(=O)[C@H](CC(C)(C)C)NC(=O)N1[C@H](C)CCC[C@@H]1C)C(=O)O [BQ788] | – | – | – | ET1-augmented UVB-induced Ca++ transients [1]: attenuated
3 | O=C(O)C(Cc1ccc2c(c1)oc1ccccc12)NCP(=O)(O)O (centres unmarked) [CGS35066] | significantly diminished | down-regulation | significant down-regulation | –
4 | CCN(CCc1ccc(Nc2nc(-c3cccnc3)cs2)cc1)Cc1ccccc1 [Compound 16-18] | – | – | – | IC50 ([4]; N2a cells, rat TRPV4, 5 nM GSK101, averaged peak ΔCa++, read-out: IC50, inhibition of TRPV4-mediated Ca++ influx): 810 nM and 590 nM; increased potency versus parental compound GSK205 ([4]; from IC50 values, rat TRPV4 in N2a cells): ~5 fold; inhibition of TRPV4-mediated Ca++ influx, first round screening ([4]; inhibitor 5 μM, 5 nM GSK101): two most potent; inhibition of TRPV4-mediated calcium influx (peak calcium concentration) [5]: most potent
5 | CCC(=N\O)/C(C)=C/c1ccc(F)cc1 [Compound A967079, reference compound] | – | – | – | reduction of pain behavior in the late neural phase [6]: more than 50%
6 | COc1ccc2c(c1)CC[C@@H]1[C@@H]2CC[C@]2(C)[C@@H](NCCCCCCN3C(=O)C=CC3=O)CC[C@@H]12 [Compound U73122] | virtually eliminated; also recorded: strongly reduced | down-regulation | significant down-regulation | –
7 | C=C(C)CCO[P@@](=O)(O)OP(=O)(O)O [IPP, isopentenyl pyrophosphate] | not inhibited | – | – | –
8 | CC(C)NCCN(C(C)C)S(=O)(=O)c1ccc(Cl)cc1Cl [RN1734] | – | significant down-regulation | significant down-regulation | –
9 | ET1: endothelin-1 peptide, cognate ligand of endothelin receptors | significant increase | – | – | GSK101-evoked Ca++ transient ([7]; 5 nM GSK101, GSK205 20 μM): augmented; 4α-PDD-evoked Ca++ transient ([7]; fura-2): significant increase; mechanical withdrawal after footpad injection [8]: significant levels of mechanical allodynia
